The values below come from US11173145B2, “Compounds useful as inhibitors of indoleamine 2,3-dioxygenase and/or tryptophan dioxygenase” (Board of Regents, The University of Texas System, priority 2017, dated 2021).

This test addresses T1, IDO1 (Homo sapiens, UniProt P14902).
T1 construct: endogenous in cells; host or cells: HeLa cells (ATCC), IFNgamma-induced
Kind of test: IDO1 cell-based assay (HeLa cells, IFNgamma-induced, N-formylkynurenine/L-tryptophan by RFMS). The settings on record: 10 ng/mL IFNgamma, 24 hours. On the procedure:
HeLa cells were obtained from the American Type Culture Collection (ATCC) and maintained in DMEM media containing 10% FBS. Cells (7,000/well) were seeded onto a 384 well plate in 50 μL of media and incubated at 37° C., 5% CO2 overnight. Cell media was aspirated, fresh media containing 10 ng/mL IFNgamma was added, and cells were incubated in absence or presence of various concentrations of test compound (final 0.5% DMSO) for 24 hours. Aliquots of the cell conditioned media were removed from the cell plate, and mixed with an equal volume of 200 mM ZnSO4 to precipitate media containing proteins. Two volumes of acetonitrile were added, mixed, and samples were then centrifuged at 2250G for 20 minutes at 4° C. Aliquots of the supernatant were diluted 1:10 in 0.1% formic acid containing 3 μM of deuterated Tryptophan as an internal standard.
Samples were analyzed via RFMS to quantify N-Formyl Kynurenine (AUC) and L-tryptophan (AUC). A C18 cartridge was used with mobile phases of 0.1% Formic Acid and 80% ACN/0.1% Formic Acid under isocratic conditions. Dose-response curves were analyzed using IC50 regression curve fitting (GeneData Screener). […] Cell viability was also assessed using the Cell Titer Glo Kit (Promega) following manufacturer recommendation.

T1 sequence (P14902 whole entry): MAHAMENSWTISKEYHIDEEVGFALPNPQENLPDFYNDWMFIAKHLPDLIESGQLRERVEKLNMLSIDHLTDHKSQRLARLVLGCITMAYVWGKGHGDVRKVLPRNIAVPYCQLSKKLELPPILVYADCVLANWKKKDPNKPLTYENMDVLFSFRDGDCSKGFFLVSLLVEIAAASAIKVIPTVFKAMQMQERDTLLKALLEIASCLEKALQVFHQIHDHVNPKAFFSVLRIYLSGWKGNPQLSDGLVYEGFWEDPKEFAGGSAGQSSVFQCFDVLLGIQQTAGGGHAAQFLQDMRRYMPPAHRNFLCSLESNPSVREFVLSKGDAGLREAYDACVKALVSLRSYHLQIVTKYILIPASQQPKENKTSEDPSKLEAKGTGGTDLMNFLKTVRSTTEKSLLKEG

As a reminder, the IC50 is the concentration needed to halve the response being measured. Read a low IC50 as higher potency. On to `CCC(NC(=O)c1ccc(Cl)cc1)[C@H]1[C@@H]2C[C@@H](O)C[C@@H]21` (single isomer, unassigned) [Compound 3], for which the concentration for half-maximal inhibition (IC50) fell in the range of 0.2 to 2 µM. The same measure for `CCC(NC(=O)c1ccc(Cl)cc1)[C@H]1[C@@H]2C[C@H](O)C[C@@H]21` (stereo partly drawn) [Compound 1, 4-chloro-N-(1-((1R,3r,5S,6r)-3-hydroxybicyclo[3.1.0]hexan-6-yl)propyl)benzamide]: 2 to 5 µM. Turning to `CCC(NC(=O)c1ccc(Cl)cc1)[C@H]1[C@@H]2C[C@@H](Oc3ncnc4ccc(F)cc34)C[C@@H]21` (stereo partly drawn) [Compound 5, 4-chloro-N-(1-((1R,3s,5S,6r)-3-((6-fluoroquinazolin-4-yl)oxy)bicyclo[3.1.0]hexan-6-yl)propyl)benzamide], the IC50 was < 0.2 µM.

`CCC(NC(=O)c1ccc(Cl)cc1)[C@H]1[C@@H]2C[C@@H](n3cnc4ccc(F)cc4c3=O)C[C@@H]21` (stereo partly drawn) [Compound 6, 4-chloro-N-(1-((1R,3s,5S,6r)-3-(6-fluoro-4-oxoquinazolin-3(4H)-yl)bicyclo[3.1.0]hexan-6-yl)propyl)benzamide]: the 50% inhibitory concentration (IC50) is < 0.2 µM. For `O=C(Cc1ccc(Cl)cc1)NC1[C@H]2C[C@H](Oc3ccnc4ccc(F)cc34)C[C@@H]12` (stereo partly drawn) [Compound 7, 2-(4-chlorophenyl)-N-((1R,3s,5S,6r)-3-((6-fluoroquinolin-4-yl)oxy)bicyclo[3.1.0]hexan-6-yl)acetamide], the IC50 was < 0.2 µM. The same measure for `O=C(Nc1ccc(Cl)cc1)C1[C@H]2CC(Oc3ccnc4ccccc34)C[C@@H]12` (stereo partly drawn) [Compound 8, (1R,5S)-N-(4-chlorophenyl)-3-(quinolin-4-yloxy)bicyclo[3.1.0]hexane-6-carboxamide]: 2 to 5 µM. In the case of `O=C(Nc1ccc(Cl)cc1)N[C@H]1[C@@H]2C[C@@H](Oc3ccnc4ccc(F)cc34)C[C@@H]21` [Compound 10, 1-(4-chlorophenyl)-3-((1R,3s,5S,6r)-3-((6-fluoroquinolin-4-yl)oxy)bicyclo[3.1.0]hexan-6-yl)urea], the half-inhibitory concentration (IC50) is < 0.2 µM. On to `Clc1ccc(-c2nnc(C3C4CC(Oc5ccnc6ccccc56)CC43)o2)cc1` (centres unmarked) [Compound 11, 2-(4-chlorophenyl)-5-(3-(quinolin-4-yloxy)bicyclo[3.1.0]hexan-6-yl)-1,3,4-oxadiazole], for which the IC50 was > 5 µM. Regarding `CC(NC(=O)c1ccc(Cl)cc1)[C@H]1[C@@H]2C[C@@H](Oc3ncnc4ccc(F)cc34)C[C@@H]21` (stereo partly drawn) [Compound 13, 4-chloro-N-(1-((1R,3s,5S,6r)-3-((6-fluoroquinazolin-4-yl)oxy)bicyclo[3.1.0]hexan-6-yl)ethyl)benzamide], the IC50 was < 0.2 µM. On to `CCC(NC(=O)c1ccc(Cl)cc1)[C@H]1[C@@H]2C[C@@H](Oc3ccc(F)cc3)C[C@@H]21` (stereo partly drawn) [Compound 14, 4-chloro-N-(1-((1R,3s,5S,6r)-3-(4-fluorophenoxy)bicyclo[3.1.0]hexan-6-yl)propyl)benzamide], for which the IC50 was < 0.2 µM.

As for `CCC(NC(=O)c1ccc(Cl)cc1)[C@H]1[C@@H]2C[C@@H](Oc3ccnc(C)c3)C[C@@H]21` (stereo partly drawn) [Compound 15, 4-chloro-N-(1-((1R,3s,5S,6r)-3-((2-methylpyridin-4-yl)oxy)bicyclo[3.1.0]hexan-6-yl)propyl)benzamide], the IC50 was < 0.2 µM. Take `O=C(NCc1ccc(Cl)cc1)C1[C@H]2CC(Oc3ccnc4ccccc34)C[C@@H]12` (stereo partly drawn) [Compound 16, (1R,5S)-N-(4-chlorobenzyl)-3-(quinolin-4-yloxy)bicyclo[3.1.0]hexane-6-carboxamide]: the IC50 was > 5 µM. `O=C(NCc1ccc(Cl)cc1)C1[C@H]2CC(Oc3cc(C(F)(F)F)nc4ccc(F)cc34)C[C@@H]12` (stereo partly drawn) [Compound 17, (1R,5S)-N-(4-chlorobenzyl)-3-((6-fluoro-2-(trifluoromethyl)quinolin-4-yl)oxy)bicyclo[3.1.0]hexane-6-carboxamide]: the half-inhibitory concentration (IC50) is > 5 µM.

`CCC(NC(=O)c1ccc(Cl)cc1)[C@H]1[C@@H]2C[C@@H](Oc3ccc(F)nc3)C[C@@H]21` (stereo partly drawn) [Compound 18, 4-chloro-N-(1-((1R,3s,5S,6r)-3-((6-fluoropyridin-3-yl)oxy)bicyclo[3.1.0]hexan-6-yl)propyl)benzamide]: the half-inhibitory concentration (IC50) was < 0.2 µM.
